Measurements as given in EP4781984A1 (Beyang Therapeutics Co., Ltd., priority 2023, dated 2025).
Values after ≈ are worked out from the molar mass of the structure shown.

Legend:
EGFR = biological target: T1, EGFR (Homo sapiens, UniProt P00533); assay: Kinase inhibitory activity, Mobility Shift Assay (EGFR); assay type: biochemical
T1 construct: purchased Carna 08-115
Method: (§1) Assay for Inhibitory Activity of Compounds Against VEGFR and EGFR Kinases
(§2) This assay directly monitors the inhibitory activity of compounds on kinase phosphorylation by measuring non-phosphorylated and phosphorylated substrates in the kinase reaction using Mobility Shift Assays/IMAP™ analysis. Table 2. Reagents and Instruments
(§3) Kinase and DTT were added to 1X kinase buffer to form a 2.5X kinase solution; 10 µL of the 2.5X kinase solution was transferred to a 384-well reaction plate, and 1X kinase buffer was added to the negative control wells. The plate was incubated at room temperature for 10 minutes; FAM-labeled peptide, MgCl2, ATP, and other reagents were added to 1X kinase buffer to form a 2.5X substrate solution; 10 µL of the above 2.5X substrate solution was transferred to the 384-well reaction plate; the plate was incubated at 28°C for varying times, and then 25 µL of stop solution was added to the 384-well reaction plate to terminate the reaction. Conversion rate data were read on a CaliperEZ Reader II. […] IC50 values were fitted using XLFit excel add-in version 5.4.0.8. Y = Bottom + (Top−Bottom)/(1 + […]) [formula]
(§4) X is the log value of compound concentration, Y is the inhibition rate (% inhibition).

melanin = assay: Compound binding to melanin; assay type: in vitro ADME; conditions: cuttlefish (Sepia officinalis), melanin suspension (1 mg/mL), percentage of free drug (not bound to melanin), 2 µM compound, melanin 1 mg/mL in PBS pH 7.4, 37°C
Text: Detection of Compound Binding to Melanin
Pigmented ocular tissues contain melanin within intracellular melanosomes. Drugs bind to melanin to varying degrees, from no binding to extensive binding. Therefore, melanin binding is an important characteristic affecting ocular drug delivery and biodistribution. The ability of compounds to bind to melanin must be considered in ocular drug development.
Melanin derived from cuttlefish (Sepia officinalis) melanin was purchased from Sigma Aldrich (St Louis, MO).
First, prepare a 1 mg/mL melanin suspension in PBS (pH 7.4). As a matrix washing step, suspended particles were centrifuged at 3000 rpm for 5 minutes. The resulting pellet was resuspended in fresh PBS buffer, heated to 37°C with continuous shaking, and incubated for 1 hour. Accurately pipette 2 microliters of test compound stock solution (0.1 mM) into 98 microliters of melanin suspension (1 mg/mL), resulting in a final incubation concentration of 2 µM. Similarly, accurately pipette 2 microliters of stock solution (0.1 mM) into 98 microliters of PBS buffer (containing 0.1% BSA) as a blank control sample. Samples were incubated at 37°C for 2 hours on a shaker (80-90 rpm). Then centrifuged at room temperature. 50 microliters of supernatant was aspirated and added to 50 microliters of precipitation agent (containing internal standard). All samples above were subjected to protein precipitation, centrifuged, the supernatant was taken, diluted with water (if necessary), and then injected for analysis. Simultaneously, high-binding compounds Sunitinib and chloroquine, and the low-binding compound celecoxib were measured as positive controls. An LC-MS/MS analytical method for determining compound concentration was established. The ratio of analyte/internal standard peak areas (Aanalyte/AIS) measured in the samples, calibrated by the dilution factor, was used as the surrogate concentration for data processing. The binding rate of the compound to melanin (Fb) is calculated by the formula: Fb = 100−(Ctest)/(Ccontrol) × 100% [formula]
Ctest is the drug concentration of the compound in the melanin incubation sample or the peak area ratio of the test compound to the internal standard. Ccontrol is the drug concentration of the compound in the blank control sample or the peak area ratio of the test compound to the internal standard. Percentage of free drug (Fu%) = 100 - Fb The binding rates of the compounds of the present invention to melanin are shown in the table below: Table 11. Binding Rate of Compounds to Melanin

[1] = Thermodynamic solubility test; assay type: physicochemical; conditions: buffer solution, aqueous buffer, thermodynamic from solid; thermodynamic solubility, room temperature, 8 hours shaking; buffers pH 2.0, 6.5, 7.4 used, pH of the tabulated value not given
Method: Solubility Test of Compounds
Table 9. Reagents and Instruments
After sonication for 10 minutes, they were fixed on a shaker and shaken at room temperature for 8 hours. After shaking, they were sonicated for 10 minutes and centrifuged at 13000 rpm for 15 minutes. 0.1 mL of supernatant was aspirated into a new tube, rinsed with 5 mL of buffer by shaking, and the liquid was discarded. 0.5 mL of supernatant was transferred again to a new tube, centrifuged at 13000 rpm for 15 minutes, and the supernatant was taken (diluted with water if necessary) for LC-MS injection analysis. Sample concentrations were quantified using a 3-5 point calibration curve.

VEGFR2 = biological target: T2, VEGFR2 (Homo sapiens, UniProt P35968); assay: Kinase inhibitory activity, Mobility Shift Assay (VEGFR2); assay type: biochemical
T2 construct: purchased Carna 08-191
T2 sequence (P35968 20-1356): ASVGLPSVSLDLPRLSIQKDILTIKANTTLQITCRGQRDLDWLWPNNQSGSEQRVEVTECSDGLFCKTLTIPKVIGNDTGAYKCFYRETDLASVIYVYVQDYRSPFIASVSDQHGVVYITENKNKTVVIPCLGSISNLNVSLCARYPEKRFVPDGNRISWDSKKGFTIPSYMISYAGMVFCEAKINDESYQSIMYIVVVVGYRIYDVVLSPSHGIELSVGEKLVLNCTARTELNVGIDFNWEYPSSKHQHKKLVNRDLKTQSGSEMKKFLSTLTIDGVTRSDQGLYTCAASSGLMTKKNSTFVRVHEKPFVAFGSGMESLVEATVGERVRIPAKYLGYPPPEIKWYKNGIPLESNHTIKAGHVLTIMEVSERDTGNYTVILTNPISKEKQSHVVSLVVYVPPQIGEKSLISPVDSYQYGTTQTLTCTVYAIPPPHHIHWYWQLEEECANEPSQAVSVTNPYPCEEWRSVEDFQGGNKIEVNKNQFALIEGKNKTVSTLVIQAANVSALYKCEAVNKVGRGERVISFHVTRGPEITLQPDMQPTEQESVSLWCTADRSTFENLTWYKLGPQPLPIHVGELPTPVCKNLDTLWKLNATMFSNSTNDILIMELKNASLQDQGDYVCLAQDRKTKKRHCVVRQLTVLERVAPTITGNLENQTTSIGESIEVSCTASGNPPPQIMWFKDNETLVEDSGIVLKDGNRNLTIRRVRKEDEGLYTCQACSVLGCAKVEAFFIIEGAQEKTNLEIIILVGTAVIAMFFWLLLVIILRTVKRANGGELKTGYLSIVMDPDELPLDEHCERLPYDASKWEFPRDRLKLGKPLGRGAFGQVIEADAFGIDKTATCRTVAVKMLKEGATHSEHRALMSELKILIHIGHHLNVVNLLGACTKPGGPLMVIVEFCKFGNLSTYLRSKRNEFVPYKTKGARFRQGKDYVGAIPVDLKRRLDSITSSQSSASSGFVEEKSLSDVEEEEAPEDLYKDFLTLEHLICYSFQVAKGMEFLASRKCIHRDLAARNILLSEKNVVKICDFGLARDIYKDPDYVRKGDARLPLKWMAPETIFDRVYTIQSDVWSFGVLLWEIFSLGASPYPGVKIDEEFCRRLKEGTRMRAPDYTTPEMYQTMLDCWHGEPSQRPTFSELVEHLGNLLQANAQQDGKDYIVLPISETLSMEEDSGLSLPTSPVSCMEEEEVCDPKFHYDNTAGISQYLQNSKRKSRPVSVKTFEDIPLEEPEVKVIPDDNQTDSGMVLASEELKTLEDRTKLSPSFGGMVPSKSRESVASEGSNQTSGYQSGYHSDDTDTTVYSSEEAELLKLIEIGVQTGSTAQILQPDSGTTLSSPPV
Method: as §1, §2, §3, §4

T1 sequence (P00533 25-1210): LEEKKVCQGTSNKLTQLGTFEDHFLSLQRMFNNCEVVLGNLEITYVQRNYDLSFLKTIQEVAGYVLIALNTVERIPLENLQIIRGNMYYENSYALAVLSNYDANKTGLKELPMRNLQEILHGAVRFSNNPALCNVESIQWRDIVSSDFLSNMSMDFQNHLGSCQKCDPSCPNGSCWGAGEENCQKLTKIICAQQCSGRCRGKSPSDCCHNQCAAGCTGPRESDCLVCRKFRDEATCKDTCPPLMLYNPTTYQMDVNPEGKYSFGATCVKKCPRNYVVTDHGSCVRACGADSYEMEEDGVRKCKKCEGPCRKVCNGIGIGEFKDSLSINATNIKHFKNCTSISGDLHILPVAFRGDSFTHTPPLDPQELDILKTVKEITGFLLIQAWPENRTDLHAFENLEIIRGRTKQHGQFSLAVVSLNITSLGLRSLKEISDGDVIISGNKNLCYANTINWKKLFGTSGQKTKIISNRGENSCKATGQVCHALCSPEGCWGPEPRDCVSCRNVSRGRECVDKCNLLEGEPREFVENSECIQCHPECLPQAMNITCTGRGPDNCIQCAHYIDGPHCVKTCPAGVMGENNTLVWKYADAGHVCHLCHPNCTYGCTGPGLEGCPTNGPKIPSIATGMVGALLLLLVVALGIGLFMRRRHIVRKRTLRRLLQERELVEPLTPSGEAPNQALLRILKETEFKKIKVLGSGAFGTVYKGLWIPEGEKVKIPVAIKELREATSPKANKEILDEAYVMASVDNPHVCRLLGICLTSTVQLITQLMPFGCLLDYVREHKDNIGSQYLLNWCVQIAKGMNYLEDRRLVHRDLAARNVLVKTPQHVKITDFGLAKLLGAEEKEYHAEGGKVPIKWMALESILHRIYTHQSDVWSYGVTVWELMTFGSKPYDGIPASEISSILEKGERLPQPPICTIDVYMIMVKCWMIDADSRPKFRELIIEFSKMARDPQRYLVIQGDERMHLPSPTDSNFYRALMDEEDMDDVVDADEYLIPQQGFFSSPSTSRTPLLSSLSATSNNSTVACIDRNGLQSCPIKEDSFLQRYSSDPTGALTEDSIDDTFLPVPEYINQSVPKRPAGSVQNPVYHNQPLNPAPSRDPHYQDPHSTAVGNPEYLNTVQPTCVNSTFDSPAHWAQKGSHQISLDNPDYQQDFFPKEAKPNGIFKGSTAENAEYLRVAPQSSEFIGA

IC50 (EGFR)	fraction unbound at 2 h, 2 µM (melanin)	solubility at 8 h [1]	IC50 (VEGFR2)	Compound
–	–	–	≤ 0.001 µM	O=C(NC1CC1)c1cc(F)ccc1Sc1ccc2c(/C=C/c3cnn(CCCN4CCCC4)c3)n[nH]c2c1 [Compound I-46]
–	> 0.05	80.4 µg/mL (≈ 157 µM)	≤ 0.001 µM	O=C(NC1CC1)c1ccc(F)cc1Sc1ccc2c(/C=C/c3ccc(CN4CCCC4)cn3)n[nH]c2c1 [Compound I-79]
6 to 60 µM	–	–	≤ 0.001 µM	CCNC(=O)c1ccccc1Sc1ccc2c(/C=C/c3cnn(CCCN4CCCC4)c3)n[nH]c2c1 [Compound I-101]
–	–	–	≤ 0.001 µM	CCNC(=O)c1ccc(F)cc1Sc1ccc2c(/C=C/c3cnn(CCCN4CCCC4)c3)n[nH]c2c1 [Compound I-103, N-ethyl-4-fluoro-2-({3-[(E)-2-{1-[3-(pyrrolidin-1-yl)propyl]-1H-pyrazol-4-yl}ethenyl]-1H-indazol-6-yl}sulfanyl)benzamide]
6 to 60 µM	> 0.05	–	–	CNC(=O)c1cc(F)ccc1Sc1ccc2c(/C=C/c3cnn(CCCN4CCCC4)c3)n[nH]c2c1 [Compound I-106]
> 60 µM	≤ 0.01	–	–	O=C(NC1CC1)c1cc(F)ccc1Sc1ccc2c(/C=C/c3cc(OCCN4CCCC4)ccn3)n[nH]c2c1 [Compound I-118]
> 60 µM	–	–	≤ 0.001 µM	O=C(NC1CC1)c1cc(F)ccc1Sc1ccc2c(/C=C/c3cc(CCCN4CCCC4)ccn3)n[nH]c2c1 [Compound I-119]
> 60 µM	–	–	≤ 0.001 µM	O=C(NC1CC1)c1ccccc1Sc1ccc2c(/C=C/c3cc(CCCN4CCCC4)ccn3)n[nH]c2c1 [Compound I-120]
> 60 µM	–	–	–	O=C(NC1CC1)c1cccc(F)c1Sc1ccc2c(/C=C/c3cc(CCCN4CCCC4)ccn3)n[nH]c2c1 [Compound I-123]
> 60 µM	–	–	–	O=C(NC1CC1)c1cc(F)ccc1Sc1ccc2c(/C=C/c3cc(CCN4CCCC4)ccn3)n[nH]c2c1 [Compound I-135]
> 60 µM	–	–	–	O=C(NC1CC1)c1cc(F)ccc1Sc1ccc2c(/C=C/c3cccc(CCN4CCCC4)n3)n[nH]c2c1 [Compound I-136]
> 60 µM	–	–	–	O=C(NC1CC1)c1cc(F)ccc1Sc1ccc2c(/C=C/c3cc(CN4CCCC4)ccn3)n[nH]c2c1 [Compound I-137]
> 60 µM	–	–	–	O=C(NC1CC1)c1cc(F)ccc1Sc1ccc2c(/C=C/c3cccc(CN4CCCC4)n3)n[nH]c2c1 [Compound I-138]

The remaining lines, values behind:

Compound	IC50 (EGFR)	fraction unbound at 2 h, 2 µM (melanin)	solubility at 8 h [1]	IC50 (VEGFR2)
CNC(=O)c1ccccc1Sc1ccc2c(/C=C/c3ccc(OCCN4CCCC4)nc3)n[nH]c2c1 [Compound I-19, N-methyl-2-((3-((E)-2-(6-(2-(pyrrolidin-1-yl)ethoxy)pyridin-3-yl)ethenyl)-1H-indazol-6-yl)thio)benzamide]	> 60 µM	0.01 to 0.05	–	–
CNC(=O)c1ccccc1Sc1ccc2c(/C=C/c3cncc(OCCN4CCCC4)c3)n[nH]c2c1 [Compound I-22]	> 60 µM	0.01 to 0.05	57.4 µg/mL (≈ 115 µM)	–
CNC(=O)c1ccccc1Sc1ccc2c(/C=C/c3ccnn3CCN3CCCC3)n[nH]c2c1 [Compound I-25]	–	> 0.05	216 µg/mL (≈ 457 µM)	> 0.1 µM
CN1CCC(CCOc2ccc(/C=C/c3n[nH]c4cc(Sc5ccccc5C(=O)NC5CC5)ccc34)nc2)CC1 [Compound I-42]	> 60 µM	0.01 to 0.05	–	–
CNC(=O)c1cccc(F)c1Sc1ccc2c(/C=C/c3ccc(CN4CCCC4)cn3)n[nH]c2c1 [Compound I-68, 3-fluoro-N-methyl-2-({3-[(E)-2-{5-[(pyrrolidin-1-yl)methyl]pyridin-2-yl}ethenyl]-1H-indazol-6-yl}sulfanyl)benzamide]	6 to 60 µM	–	–	0.001 to 0.01 µM
O=C(NC1CC1)c1ccccc1Nc1ccc2c(/C=C/c3ccc(CN4CCCC4)cn3)n[nH]c2c1 [Compound I-82, N-cyclopropyl-2-({3-[(E)-2-{5-[(pyrrolidin-1-yl)methyl]pyridin-2-yl}ethenyl]-1H-indazol-6-yl}amino)benzamide]	–	0.01 to 0.05	294 µg/mL (≈ 614 µM)	≤ 0.001 µM
CCN(CC)Cc1ccc(/C=C/c2n[nH]c3cc(Sc4c(F)cccc4C(=O)NC4CC4)ccc23)nc1 [Compound I-85]	6 to 60 µM	–	–	0.001 to 0.01 µM
CCNC(=O)c1ccc(Sc2ccc3c(/C=C/c4ccc(CN(CC)CC)cn4)n[nH]c3c2)cc1F [Compound I-87, 4-({3-[(E)-2-{5-[(diethylamino)methyl]pyridin-2-yl}ethenyl]-1H-indazol-6-yl}sulfanyl)-N-ethyl-2-fluorobenzamide]	> 60 µM	–	–	> 0.1 µM
CCN(CC)CCc1ccc(/C=C/c2n[nH]c3cc(Sc4cc(F)ccc4C(=O)NC4CC4)ccc23)nc1 [Compound I-108]	–	–	–	≤ 0.001 µM
CCN(CC)CCc1ccc(/C=C/c2n[nH]c3cc(Sc4ccc(F)cc4C(=O)NC4CC4)ccc23)nc1 [Compound I-109]	–	> 0.05	1950 µg/mL (≈ 3680 µM)	≤ 0.001 µM
CCNC(=O)c1cccc(F)c1Sc1ccc2c(/C=C/c3cccc(CN4CCCC4)n3)n[nH]c2c1 [Compound I-113, N-ethyl-3-fluoro-2-({3-[(E)-2-{6-[(pyrrolidin-1-yl)methyl]pyridin-2-yl}ethenyl]-1H-indazol-6-yl}sulfanyl)benzamide]	–	–	–	> 0.1 µM
CCNC(=O)c1cccc(F)c1Sc1ccc2c(/C=C/c3cc(CN4CCCC4)ccn3)n[nH]c2c1 [Compound I-114]	> 60 µM	–	–	> 0.1 µM
CCNC(=O)c1cccc(F)c1Sc1ccc2c(/C=C/c3cc(CCCN4CCCC4)ccn3)n[nH]c2c1 [Compound I-116, N-ethyl-3-fluoro-2-({3-[(E)-2-{4-[3-(pyrrolidin-1-yl)propyl]pyridin-2-yl}ethenyl]-1H-indazol-6-yl}sulfanyl)benzamide]	> 60 µM	0.01 to 0.05	–	–
O=C(NC1CC1)c1ccccc1Sc1ccc2c(/C=C/c3cccc(CN4CCCC4)n3)n[nH]c2c1 [Compound I-117]	> 60 µM	0.01 to 0.05	–	–
O=C(NC1CC1)c1cccc(F)c1Sc1ccc2c(/C=C/c3cccc(CCN4CCCC4)n3)n[nH]c2c1 [Compound I-128]	> 60 µM	–	–	–
CCNC(=O)c1cccc(F)c1Sc1ccc2c(/C=C/c3cccc(CCN4CCCC4)n3)n[nH]c2c1 [Compound I-129]	> 60 µM	–	–	–
O=C(NC1CC1)c1ccccc1Sc1ccc2c(/C=C/c3cc(CCN4CCCC4)ccn3)n[nH]c2c1 [Compound I-133, N-cyclopropyl-2-((3-((E)-2-(4-(2-(pyrrolidin-1-yl)ethyl)pyridin-2-yl)ethenyl)-1H-indazol-6-yl)thio)benzamide]	> 60 µM	–	–	–
O=C(NC1CC1)c1ccccc1Sc1ccc2c(/C=C/c3cccc(CCN4CCCC4)n3)n[nH]c2c1 [Compound I-134]	> 60 µM	–	–	0.001 to 0.01 µM
O=C(NC1CC1)c1ccccc1Sc1ccc2c(C#Cc3ccc(OCCN4CCCC4)cn3)n[nH]c2c1 [Compound I-139]	> 60 µM	–	–	–
